Source: patent publication US9346809B2 (LEO PHARMA A/S, priority 2009, dated 2016)

Tests used:
Type in all cases: biochemical
[1] = target: T1, JAK1 (aa 850-1154, catalytic domain, GST-tag) (Homo sapiens, UniProt P23458); experiment: JAK kinase assay (HTRF, phosphorylation of TK substrate-biotin), JAK1; details: ATP at Km (7 μM); read-out: JAK1 kinase inhibitory activity (EC50 indicator)
T1 construct: JAK1 (aa 850-1154) and TYK2 (aa 871-1187) are expressed with an N-terminally fused GST-tag; GST (N); purchased Carna Biosciences, Inc; host or cells: baculovirus expression system
T1 sequence (P23458 850-1154): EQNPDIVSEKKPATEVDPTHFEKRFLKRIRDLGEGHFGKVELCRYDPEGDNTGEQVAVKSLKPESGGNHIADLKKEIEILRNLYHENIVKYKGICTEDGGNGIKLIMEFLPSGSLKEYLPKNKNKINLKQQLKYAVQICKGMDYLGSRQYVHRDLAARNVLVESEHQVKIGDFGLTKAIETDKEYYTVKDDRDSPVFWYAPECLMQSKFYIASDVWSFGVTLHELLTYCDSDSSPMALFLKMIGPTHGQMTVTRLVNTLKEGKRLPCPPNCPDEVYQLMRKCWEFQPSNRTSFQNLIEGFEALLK
Outline: (§1)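 Baculovirus-expressed catalytic domains phosphorylated 1 μM TK substrate-biotin in 50 mM Hepes pH 7.0 with ATP at Km (JAK1 7 μM, JAK2 4 μM, JAK3 2 μM, TYK2 13 μM) for 20-30 min at RT. EDTA/KF stop, streptavidin-XL665 plus cryptate antibody overnight; HTRF signal gave EC50.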

[2] = target: T2, TYK2 (aa 871-1187, catalytic domain, GST-tag) (Homo sapiens, UniProt P29597); experiment: JAK kinase assay (HTRF, phosphorylation of TK substrate-biotin), TYK2; details: ATP at Km (13 μM); read-out: TYK2 kinase inhibitory activity (EC50 indicator)
T2 construct: JAK1 (aa 850-1154) and TYK2 (aa 871-1187) are expressed with an N-terminally fused GST-tag; GST (N); purchased Carna Biosciences, Inc; host or cells: baculovirus expression system
T2 sequence (P29597 871-1187): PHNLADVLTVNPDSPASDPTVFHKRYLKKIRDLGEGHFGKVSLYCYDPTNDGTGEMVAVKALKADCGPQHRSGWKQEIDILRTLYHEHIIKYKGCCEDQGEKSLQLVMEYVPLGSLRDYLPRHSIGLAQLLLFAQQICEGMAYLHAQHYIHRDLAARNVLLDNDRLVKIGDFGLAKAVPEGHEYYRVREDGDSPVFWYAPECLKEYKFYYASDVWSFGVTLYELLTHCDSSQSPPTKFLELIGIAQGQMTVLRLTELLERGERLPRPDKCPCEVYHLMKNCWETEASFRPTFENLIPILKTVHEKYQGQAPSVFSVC
Outline: as §1

[3] = target: T3, JAK3 (catalytic domain, His-tag) (Homo sapiens, UniProt P52333); experiment: JAK kinase assay (HTRF, phosphorylation of TK substrate-biotin), JAK3; details: ATP at Km (2 μM); read-out: JAK3 kinase inhibitory activity (EC50 indicator)
T3 construct: All four purified enzymes contain only the catalytic domain; His (N); purchased Carna Biosciences, Inc; host or cells: baculovirus expression system
T3 sequence (P52333 822-1111 limits assumed): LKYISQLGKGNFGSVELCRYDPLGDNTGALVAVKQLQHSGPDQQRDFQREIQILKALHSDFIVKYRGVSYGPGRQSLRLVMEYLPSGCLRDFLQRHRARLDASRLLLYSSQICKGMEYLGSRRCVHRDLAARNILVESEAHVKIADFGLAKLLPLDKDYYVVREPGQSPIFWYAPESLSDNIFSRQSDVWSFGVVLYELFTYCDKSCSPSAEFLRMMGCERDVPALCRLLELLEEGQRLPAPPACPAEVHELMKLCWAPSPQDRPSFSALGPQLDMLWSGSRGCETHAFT
Outline: as §1

[4] = target: T4, JAK2 (catalytic domain, His-tag) (Homo sapiens, UniProt O60674); experiment: JAK kinase assay (HTRF, phosphorylation of TK substrate-biotin), JAK2; details: ATP at Km (4 μM); read-out: JAK2 kinase inhibitory activity (EC50 indicator)
T4 construct: All four purified enzymes contain only the catalytic domain; His (N); purchased Carna Biosciences, Inc; host or cells: baculovirus expression system
T4 sequence (O60674 849-1124 limits assumed): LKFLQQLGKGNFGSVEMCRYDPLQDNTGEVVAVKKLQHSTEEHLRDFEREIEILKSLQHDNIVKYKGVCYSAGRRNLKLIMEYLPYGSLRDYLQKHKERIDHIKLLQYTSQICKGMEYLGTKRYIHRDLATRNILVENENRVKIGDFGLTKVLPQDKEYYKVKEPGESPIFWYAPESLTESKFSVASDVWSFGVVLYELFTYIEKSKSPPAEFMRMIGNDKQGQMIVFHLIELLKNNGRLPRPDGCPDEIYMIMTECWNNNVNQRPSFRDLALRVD
Outline: as §1

Row | SMILES | EC50 [1] [nM] | EC50 [2] [nM] | EC50 [3] [nM] | EC50 [4] [nM]
1 | Cc1c[nH]c2ncnc(N3CCN(C(=O)c4cnc5ccccc5n4)C4(CC4)C3)c12 [Example 120, [7-(5-Methyl-7H-pyrrolo[2,3-d]pyrimidin-4-yl)-4,7-diaza-spiro[2.5]oct-4-yl]-quinoxalin-2-yl-methanone] | > 500 | > 500 | > 500 | > 500
2 | COC(=O)c1cc2c(N3CCN(C(=O)Cc4cccc(CC#N)c4)C4(CC4)C3)ncnc2[nH]1 [Example 121, 4-{4-[2-(3-Cyanomethyl-phenyl)-acetyl]-4,7-diaza-spiro[2.5]oct-7-yl}-7H-pyrrolo[2,3-d]pyrimidine-6-carboxylic acid methyl ester] | > 500 | > 500 | > 500 | > 500
3 | COC(=O)c1cc2c(N3CCN(C(=O)Cc4ccc(CC#N)cc4)C4(CC4)C3)ncnc2[nH]1 [Example 122, 4-{4-[2-(4-Cyanomethyl-phenyl)-acetyl]-4,7-diaza-spiro[2.5]oct-7-yl}-7H-pyrrolo[2,3-d]pyrimidine-6-carboxylic acid methyl ester] | > 500 | > 500 | > 500 | > 500
4 | COC(=O)c1cc2c(N3CCN(C(=O)Cc4cccc(C#N)c4)C4(CC4)C3)ncnc2[nH]1 [Example 123, 4-{4-[2-(3-Cyano-phenyl)-acetyl]-4,7-diaza-spiro[2.5]oct-7-yl}-7H-pyrrolo[2,3-d]pyrimidine-6-carboxylic acid methyl ester] | > 500 | > 500 | > 500 | > 500
5 | COC(=O)c1cc2c(N3CCN(C(=O)Cc4ccc(C#N)cc4)C4(CC4)C3)ncnc2[nH]1 [Example 124, 4-{4-[2-(4-Cyano-phenyl)-acetyl]-4,7-diaza-spiro[2.5]oct-7-yl}-7H-pyrrolo[2,3-d]pyrimidine-6-carboxylic acid methyl ester] | > 500 | > 500 | > 500 | > 500
6 | O=C(C1Cc2ccccc21)N1C2CCC1CN(c1ncnc3[nH]ccc13)C2 (stereo not shown) [Example 132, Bicyclo[4.2.0]octa-1(6),2,4-trien-7-yl-[3-(7H-pyrrolo[2,3-d]pyrimidin-4-yl)-3,8-diaza-bicyclo[3.2.1]oct-8-yl]-methanone] | 100 to 500 | > 500 | 100 to 500 | 100 to 500
7 | O=C1c2ccccc2CC1C(=O)N1C2CCC1CN(c1ncnc3[nH]ccc13)C2 (stereo not shown) [Example 133, 2-[3-(7H-Pyrrolo[2,3-d]pyrimidin-4-yl)-3,8-diaza-bicyclo[3.2.1]octane-8-carbonyl]-indan-1-one] | > 500 | > 500 | > 500 | 100 to 500
8 | CS(=O)(=O)c1ccc(CC(=O)N2C3CCC2CN(c2ncnc4[nH]ccc24)C3)cc1 [Example 134, 2-(4-Methanesulfonyl-phenyl)-1-[3-(7H-pyrrolo[2,3-d]pyrimidin-4-yl)-3,8-diaza-bicyclo[3.2.1]oct-8-yl]-ethanone] | 100 to 500 | > 500 | > 500 | 100 to 500
9 | O=C([C@@H]1CCCc2ccccc21)N1C2CCC1CN(c1ncnc3[nH]ccc13)C2 [Example 137, [3-(7H-Pyrrolo[2,3-d]pyrimidin-4-yl)-3,8-diaza-bicyclo[3.2.1]oct-8-yl]-(1,2,3,4-tetrahydro-naphthalen-1-yl)-methanone] | > 500 | > 500 | > 500 | 100 to 500
10 | Cc1ccc(C(=O)N2C3CCC2CN(c2ncnc4[nH]ccc24)C3)cc1S(N)(=O)=O [Example 138, 2-Methyl-5-[3-(7H-pyrrolo[2,3-d]pyrimidin-4-yl)-3,8-diaza-bicyclo[3.2.1]octane-8-carbonyl]-benzenesulfonamide] | < 100 | > 500 | < 100 | < 100

Continued, values first:

Row | EC50 [1] [nM] | EC50 [2] [nM] | EC50 [3] [nM] | EC50 [4] [nM] | SMILES
11 | < 100 | > 500 | 100 to 500 | < 100 | O=C(C1Cc2ccccc21)N1CCN(c2ncnc3[nH]ccc23)CC12CC2 (stereo not shown) [Example 125, Bicyclo[4.2.0]octa-1(6),2,4-trien-7-yl-[7-(7H-pyrrolo[2,3-d]pyrimidin-4-yl)-4,7-diaza-spiro[2.5]oct-4-yl]-methanone]
12 | < 100 | > 500 | 100 to 500 | < 100 | O=C1CC(C(=O)N2CCN(c3ncnc4[nH]ccc34)CC23CC3)c2ccccc21 (stereo not shown) [Example 126, 3-[7-(7H-Pyrrolo[2,3-d]pyrimidin-4-yl)-4,7-diaza-spiro[2.5]octane-4-carbonyl]-indan-1-one]
13 | < 100 | > 500 | < 100 | < 100 | NS(=O)(=O)c1cc(OCC(=O)N2C3CCC2CN(c2ncnc4[nH]ccc24)C3)ccc1Cl [Example 127, 2-Chloro-5-{2-oxo-2-[3-(7H-pyrrolo[2,3-d]pyrimidin-4-yl)-3,8-diaza-bicyclo[3.2.1]oct-8-yl]-ethoxy}-benzenesulfonamide]
14 | < 100 | > 500 | 100 to 500 | < 100 | N#Cc1ccc(C(=O)C(=O)N2C3CCC2CN(c2ncnc4[nH]ccc24)C3)cc1 [Example 128, 4-{2-Oxo-2-[3-(7H-pyrrolo[2,3-d]pyrimidin-4-yl)-3,8-diaza-bicyclo[3.2.1]oct-8-yl]-acetyl}-benzonitrile]
15 | < 100 | > 500 | < 100 | < 100 | N#Cc1ccc2[nH]c(C(=O)N3C4CCC3CN(c3ncnc5[nH]ccc35)C4)cc2c1 [Example 129, 2-[3-(7H-Pyrrolo[2,3-d]pyrimidin-4-yl)-3,8-diaza-bicyclo[3.2.1]octane-8-carbonyl]-1H-indole-5-carbonitrile]
16 | < 100 | 100 to 500 | < 100 | < 100 | CS(=O)(=O)c1ccc2[nH]c(C(=O)N3C4CCC3CN(c3ncnc5[nH]ccc35)C4)cc2c1 [Example 130, (5-Methanesulfonyl-1H-indol-2-yl)-[3-(7H-pyrrolo[2,3-d]pyrimidin-4-yl)-3,8-diaza-bicyclo[3.2.1]oct-8-yl]-methanone]
17 | < 100 | 100 to 500 | 100 to 500 | < 100 | CS(=O)(=O)c1ccc(C(=O)N2C3CCC2CN(c2ncnc4[nH]ccc24)C3)cc1F [Example 131, (3-Fluoro-4-methanesulfonyl-phenyl)-[3-(7H-pyrrolo[2,3-d]pyrimidin-4-yl)-3,8-diaza-bicyclo[3.2.1]oct-8-yl]-methanone]
18 | < 100 | > 500 | 100 to 500 | < 100 | CS(=O)(=O)c1cccc(C(=O)N2C3CCC2CN(c2ncnc4[nH]ccc24)C3)c1 [Example 135, (3-Methanesulfonyl-phenyl)-[3-(7H-pyrrolo[2,3-d]pyrimidin-4-yl)-3,8-diaza-bicyclo[3.2.1]oct-8-yl]-methanone]
19 | < 100 | 100 to 500 | < 100 | < 100 | O=C(c1cc2cc(F)ccc2[nH]1)N1C2CCC1CN(c1ncnc3[nH]ccc13)C2 [Example 136, (5-Fluoro-1H-indol-2-yl)-[3-(7H-pyrrolo[2,3-d]pyrimidin-4-yl)-3,8-diaza-bicyclo[3.2.1]oct-8-yl]-methanone]
